This is an account of results in patent US12150933B2, “IL-8 inihibitors for use in the treatment of some urological disorders” (DOMPÉ FARMACEUTICI S.P.A., priority 2015, dated 2024).

Test [1] relates to CYP-induced cystitis. Briefly: Follow-up up to 10 days after discontinuation of treatment (body weight, survival). The format is in vivo.
In test [2] the test system is CYP-induced visceral pain. Put plainly: Chronic administration in CYP-induced visceral pain in rats (Von Frey withdrawal threshold). The format is in vivo, rat. The method, then: Cyclophosphamide, 75 mg/kg i.p. for 3 times, every 3rd day, was dissolved in distilled water and administered to animals by i.p. route (volume 5 mL/kg). Appropriate weight of Compd. 1 or Compd. 2 was dissolved in saline, all doses of test compounds were administered by oral gavage (volume 2 mL/kg).
On the day of the experiment, each rat was placed individually in a clear plastic testing box with a grid floor and allowed to acclimatize for at least 10 min. Visceral sensitivity in response to mechanical stimuli was determined using Von Frey monofilaments (1-2-4-8-15-26-60-100 g) applied in the lower abdominal area (close to the urinary bladder) and on both hind paws plantar surface (to evaluate referred pain).
Each Von Frey monofilament was applied 5 times at the level of abdomen and 3 times at the level of each paw, in an ascending order of strength at interval of 5 sec. A stimulus-induced response was considered positive when the paw was sharply withdrawn, paw licking occurred, or the animal flinched upon removal of the filament.
• before CYP administration (in order to acquire basal values) • after CYP administration and before treatment, to verify the pathology (in order to acquire pre-treatment values) • after chronic treatment, about 18 hours after last administration of Compd. 1 (in order to acquire post-treatment values). • after chronic treatment, 2 hours after the last administration of Compd. 1 (in order to acquire post-treatment values after chronic+acute administration)
Compd. 1 or vehicle was administered p.o. to animals twice daily (according to the pharmacokinetic profile of the compound) for 6 days, starting from 24 hours after last treatment with CYP, when painful symptoms were well established. Nociceptive hypersensitivity was evaluated about 18 hours after the last administration of Compd. 1 (or vehicle) in order to evaluate the effect of chronic administration, or a further dosage of compound was administered and evaluation carried out 2 hours thereafter, in order to compare with acute protocol, described in Example 1.

For test [3], the system named is CYP-induced cystitis. Briefly: Cystometrographic recordings in conscious rats with CYP-induced cystitis. The settings on record: for bladder volume capacity (BVC): 24 hours after CYP 175 mg/kg i.p. The format is in vivo, rat. On the procedure: Female Sprague Dawley rats (Crl:CD(SD)BR, 250-350 g bw) from Charles River Italy were used in these experiments. Animals were housed with free access to food and water and maintained on a forced 12 hours light-dark cycle at 22-24° C. for at least one week before the experiments were carried out.
Rats, anaesthetized with equithensin solution (2 ml/kg i.p.), were placed in a supine position and an approximately 10 mm midline incision was made in the shaved and cleaned abdominal wall. The urinary bladder was gently freed from adhering tissues, emptied and then cannulated, via an incision at the dome, with a polyethylene cannula (Portex, ID 0.58 mm, OD 0.96 mm), which was permanently sutured with silk thread. The cannula was exteriorized through a subcutaneous tunnel in the retroscapular area, where it was connected with a plastic adapter, in order to avoid the risk of removal by the animal.
For drugs testing, rats were utilized one day after catheter implantation at about 24 hours after administrations CYP.
On the day of the experiment, the rats (fasted overnight) were placed in Bollman's cages; after a stabilization period of 20 min, the free tip of the cannula was connected by a T-shape tube to a pressure transducer and to a peristaltic pump for a continuous infusion of saline solution (room temperature) into the urinary bladder, at the constant rate of 0.05 ml/min. This procedure, termed cystometry, allows the detection of continuous cycles of filling and voiding of the bladder named cystometrograms.
From the cystometrograms acquired by the Biopac System and recorded on a PC the Bladder Volume Capacity (BVC) parameter was calculated as volume capacity, defined as volume (in ml) infused into the bladder and necessary to induce detrusor contraction followed micturition.
Basal BVC was evaluated as mean values from the cystometrograms recorded in 30-60 minutes of time prior the treatment (“BASAL”). Then the bladder infusion was stopped, the animals were treated orally with the test compound or vehicle and, after restarting continuous bladder filling with saline for 4 or 5 hours, BVC values after administration were collected.
BVC parameters were recorded from the cystometrogram over a 4/5 hours period post-dose.

For test [4], the system named is CYP-induced urinary bladder cystitis. Put plainly: Microscopic examination of urinary bladders after chronic administration (histology, immunohistochemistry). The format is in vivo, rat. The text has this:
At the end of the efficacy study of chronic administration, the urinary bladders were opened, placed in 10% buffered formalin and stored at room temperature until hystomorphological analysis.
Treatment with Compd. […] The induced lesions consisted of apoptosis, erosions of the mucosa, mitoses of the mucosal cells, mucosal hyperplasia, infiltration of inflammatory cells and micro-hemorrhages. Caspase 3 and caspase 9 expression (markers of apoptosis) as well as Ki67 expression (marker for cell proliferation) were reduced in the group treated with Compd. 1.

The subject of test [5] is CYP-induced visceral pain. Briefly: Acute administration in CYP-induced visceral pain in rats (Von Frey mechanical threshold). The format is in vivo, rat. On the procedure:
Female Sprague Dawley rats (Crl:CD(SD)BR, 250-350 g) from Charles River Italy were used in these experiments. Animals were housed with free access to food and water and maintained on a forced 12 hours light-dark cycle at 22-24° C. for at least one week before the experiments were carried out. The animals were handled according to internationally accepted principles for care of laboratory animals (E.E.C. Council Directive 86/609, […]. 18, 1986). Cyclophosphamide, 75 mg/kg i.p. for 3 times, every 3rd day, was dissolved in distilled water and administered to animals by i.p. route (volume 5 mL/kg). Appropriate weight of Compd. 1 or Compd. 2 was dissolved in saline, all doses of test compounds were administered by oral gavage (volume 2 mL/kg). On the day of the experiment, each rat was placed individually in a clear plastic testing box with a grid floor and allowed to acclimatize for at least 10 min. Visceral sensitivity in response to mechanical stimuli was determined using Von Frey monofilaments (1-2-4-8-15-26-60-100 g) applied in the lower abdominal area (close to the urinary bladder) and on both hind paws plantar surface (to evaluate referred pain). Each Von Frey monofilament was applied 5 times at the level of abdomen and 3 times at the level of each paw, in an ascending order of strength at interval of 5 sec. A stimulus-induced response was considered positive when the paw was sharply withdrawn, paw licking occurred, or the animal flinched upon removal of the filament. Behavioral testing on animals was performed at 3 different times: • before CYP administration (in order to acquire basal values) • after CYP administration, before treatment with the test compound, to verify the pathology (in order to acquire pre-treatment values) • after CYP administration, after treatment (in order to acquire post-treatment values) […] The test was performed in blind. Compd. 1 and Compd. […]

[6] abbreviates: 7 mg/kg twice daily p.o. for 6 days, about 18 hours after last administration.
[7] abbreviates: immunohistochemistry, versus CYP group.

Values joined by “and” are separate entries in the source; they are usually repeats but may differ in a detail not shown here. Identical values can stand only once. “Also recorded” adds a separate entry of the source.

Consider `C[C@H](C(=O)O)c1ccc(Nc2nc(C(F)(F)F)cs2)cc1` [Compd. 1, (2S)-2-(4-{[4-(trifluoromethyl)-1,3-thiazol-2-yl]amino}phenyl) propanoic acid], for which the survival in test [1] (vehicle-treated 50%) is recorded as 65%. Also, the body weight recovery entry in test [1] (versus vehicle-treated animals) is “body weight recovery faster than vehicle-treated animals”. For the same compound, the “painful visceral symptoms in both evaluated areas” value in test [2] (7 mg/kg twice daily p.o. for 6 days plus one further dose, 2 hours following the last administration) is “fully abolished the painful visceral symptoms in both evaluated areas”. Also, the “nociceptive hypersensitivity in hind-paws plantar surface” value in test [2] (setting [6]) is “completely reverses the nociceptive hypersensitivity in hind-paws plantar surface”. The “withdrawal thresholds in the abdomen” value in test [2] (setting [6]) is “almost complete recovery of withdrawal thresholds in the abdomen; also recorded: almost complete increase in withdrawal thresholds in the abdomen”. Further, the “bladder volume capacity (BVC)” value in test [3] (10 mg/kg oral) is “did not induce any changes of BVC”; in test [3] (20 mg/kg oral), “moderate increase of BVC statistically different from vehicle and pre-drug treatment at 4 and 5 hours”; in test [3] (30 mg/kg oral), “sustained increase of BVC”. The “increase of BVC” value in test [3] (30 mg/kg oral, significant at 3 and 4 hours after treatment) is recorded as “up to +40%”. Further, the MP entry in test [3] (20 and 30 mg/kg oral) is “inactive on MP”. Besides, in test [4] (7 mg/kg oral twice a day for 6 days after CYP), the “inflammatory, degenerative and proliferative lesions of the urinary bladder” value was “clearly reduced or reversed the inflammatory, degenerative and proliferative lesions”. Further, the “Incidence: Apoptosis epithelial cell, urinary bladder” value in test [4] (animals of 10/group, 7 mg/kg oral twice a day for 6 days after CYP) was 3/10 and 3. The “Caspase 3 and caspase 9 expression (markers of apoptosis)” value in test [4] (setting [7]) was “reduced”. In test [4] (setting [7]), the “Ki67 expression (marker for cell proliferation)” value is “reduced; also recorded: lower grade of positivity”. The “withdrawal thresholds, abdomen and hind paws” value in test [5] (1 mg/kg p.o., 2 hours after administration, versus pre-treatment) is listed as “not significantly different from the pretreatment values”. Moreover, the “mechanical threshold, abdomen and hind paws” value in test [5] (3 mg/kg p.o., 2 hours after administration, versus pre-treatment) was “statistical significant increase of mechanical threshold in both the areas evaluated”; in test [5] (7 mg/kg p.o., 2 hours after administration, versus pre-treatment), “statistical significant reduction of painful hypersensitivity in both the abdominal and plantar surface”; in test [5] (10 mg/kg p.o., 2 hours after administration, versus pre-treatment), “statistically significant increase in mechanical threshold in both the abdomen and paws area; also recorded: statistical significant reduction of painful hypersensitivity in both the abdominal and plantar surface”; in test [5] (30 mg/kg p.o., 2 hours after administration, versus pre-treatment), “statistically significant increase in mechanical threshold in both the abdomen and paws area”. This compound also yielded an MED in test [5] (p.o., acute administration) of 3 mg/kg.
